Measured values reported in patent US4670461A, “Formaldehyde derivatives of mitindomide” (priority 1984, dated 1987).
Counter-ions that a name gives are not always drawn.

Legend:
L1210 leukemia [1] = experiment: S.C. implanted L1210 leukemia in mice (CD2F1); type: in vivo
Description: ^a Experimental formulation of mitindomide was used (NaOH + manitol).

[2] = test system: certain experimental tumor systems; conditions: Pettit et al, Can. J. Chem. 61, 2291-2294 (1983); cited from earlier work
[3] = background section; cited from earlier work
L1210 leukemia [4] = experiment: IP implanted L1210 leukemia in mice (CD2F1); type: in vivo
Water solubility = type: physicochemical; conditions: water
P388 = experiment: IP P388, Days 1-9 (NCI murine test system); type: in vivo; conditions: IP P388, Days 1-9, dose 68.8
Description: Anti-tumor or anti-neoplastic activity of the novel derivatives of the present invention is determined by using the murine test system for screening anti-cancer compounds as standardized by the National Cancer Institute, Bethesda, Md., U.S.A., and described in Cancer Chemotherapy Reports, 3 (2) 1-103 (1972) which publication is incorporated herein by reference.
It is noted that although the intraperitoneal mode of administration of the novel derivatives is preferred, other modes of parenteral administration, e.g. subcutaneous, intravenous, etc., are, of course, possible and included within the purview of this invention. Similarly, although water has been used as a vehicle for the administration of the compounds of the present invention, other pharmaceutically acceptable vehicles, e.g. saline, buffers, and other aqueous media may also be used for the administration of these compounds together with adjuvants, agents or additives commonly employed in the preparation of pharmaceutical compositions. Examples of such agents, additives and adjuvants that may be employed are listed in Instruction 14, Screening Data Summary Interpretation and Outline of Clinical Screen. Drug Evaluation Branch, NCI. and are incorporated herein by reference.

[5] = 18.0 mg/kg ip days 1-9, Expt. 1
[6] = 18.0 mg/kg ip days 1-9, Expt. 2
[7] = 30.0 mg/kg ip days 1-9, Expt. 1
[8] = 30.0 mg/kg ip days 1-9, Expt. 2
[9] = 50.0 mg/kg ip days 1-9, Expt. 1
[10] = 50.0 mg/kg ip days 1-9, Expt. 2
[11] = 83.3 mg/kg ip days 1-9, Expt. 1
[12] = 18.0 mg/kg IP days 1-9, Expt. 1
[13] = 18.0 mg/kg IP days 1-9, Expt. 2
[14] = 18.0 mg/kg IP days 1-9, Expt. 3
[15] = 30.0 mg/kg IP days 1-9, Expt. 1
[16] = 30.0 mg/kg IP days 1-9, Expt. 2
[17] = 30.0 mg/kg IP days 1-9, Expt. 3
[18] = 50.0 mg/kg IP days 1-9, Expt. 1
[19] = 50.0 mg/kg IP days 1-9, Expt. 2
[20] = 50.0 mg/kg IP days 1-9, Expt. 3
[21] = 83.3 mg/kg IP days 1-9, Expt. 1
[22] = 83.3 mg/kg IP days 1-9, Expt. 2
[23] = 83.3 mg/kg IP days 1-9, Expt. 3
[24] = 24.8 mg/kg ip days 1-9, Expt. 1
[25] = 24.8 mg/kg ip days 1-9, Expt. 2
[26] = 41.3 mg/kg ip days 1-9, Expt. 1
[27] = 41.3 mg/kg ip days 1-9, Expt. 2
[28] = 68.8 mg/kg ip days 1-9, Expt. 1
[29] = 68.8 mg/kg ip days 1-9, Expt. 2
[30] = 114.7 mg/kg ip days 1-9, Expt. 1
[31] = 24.8 mg/kg IP days 1-9, Expt. 1
[32] = 24.8 mg/kg IP days 1-9, Expt. 2
[33] = 24.8 mg/kg IP days 1-9, Expt. 3
[34] = 41.3 mg/kg IP days 1-9, Expt. 1
[35] = 41.3 mg/kg IP days 1-9, Expt. 2
[36] = 41.3 mg/kg IP days 1-9, Expt. 3
[37] = 68.8 mg/kg IP days 1-9, Expt. 1
[38] = 68.8 mg/kg IP days 1-9, Expt. 2
[39] = 68.8 mg/kg IP days 1-9, Expt. 3
[40] = 114.7 mg/kg IP days 1-9, Expt. 1
[41] = 114.7 mg/kg IP days 1-9, Expt. 2
[42] = 114.7 mg/kg IP days 1-9, Expt. 3

O=C1NC(=O)[C@H]2[C@H]3C=C[C@@H]([C@@H]12)[C@@H]1[C@H]2C(=O)NC(=O)[C@H]2[C@H]31 [Mitindomide, 4,8-Ethenopyrrolo[3',4':3,4]cyclobut[1,2-f]-isoindole-1,3,5,7(2H,6H) tetrone, octahydro]
ILS (L1210 leukemia [1]; [5]): 21% | MST (L1210 leukemia [1]; [5]): 10.0 days | Wt. Change (L1210 leukemia [1]; [5]): 0.0 g | ILS (L1210 leukemia [1]; [6]): 12% | MST (L1210 leukemia [1]; [6]): 12.0 days | Wt. Change (L1210 leukemia [1]; [6]): -0.1 g | ILS (L1210 leukemia [1]; [7]): 50% | MST (L1210 leukemia [1]; [7]): 12.3 days | Wt. Change (L1210 leukemia [1]; [7]): -3.8 g | ILS (L1210 leukemia [1]; [8]): 42% | MST (L1210 leukemia [1]; [8]): 15.3 days | Wt. Change (L1210 leukemia [1]; [8]): -1.6 g | ILS (L1210 leukemia [1]; [9]): 92% | MST (L1210 leukemia [1]; [9]): 15.8 days | Wt. Change (L1210 leukemia [1]; [9]): -4.3 g | ILS (L1210 leukemia [1]; [10]): 136% | MST (L1210 leukemia [1]; [10]): 25.3 days | Wt. Change (L1210 leukemia [1]; [10]): -4.2 g | ILS (L1210 leukemia [1]; [11]): 6% | MST (L1210 leukemia [1]; [11]): 8.7 days | Wt. Change (L1210 leukemia [1]; [11]): -5.6 g | Wt. Change (L1210 leukemia [1]; 83.3 mg/kg ip days 1-9, Expt. 2): -5.6 g | inhibitory activity against certain experimental tumor systems [2]: strong inhibitory activity | solubility in water [3]: virtually insoluble in water | ILS (L1210 leukemia [4]; [12]): 3% | MST (L1210 leukemia [4]; [12]): 9.0 days | Wt. Change (L1210 leukemia [4]; [12]): 2.3 g | ILS (L1210 leukemia [4]; [13]): 10% | MST (L1210 leukemia [4]; [13]): 8.8 days | Wt. Change (L1210 leukemia [4]; [13]): -0.7 g | ILS (L1210 leukemia [4]; [14]): 13% | MST (L1210 leukemia [4]; [14]): 9.3 days | Wt. Change (L1210 leukemia [4]; [14]): 0.3 g | ILS (L1210 leukemia [4]; [15]): 49% | MST (L1210 leukemia [4]; [15]): 13.0 days | Wt. Change (L1210 leukemia [4]; [15]): 1.2 g | ILS (L1210 leukemia [4]; [16]): 66% | MST (L1210 leukemia [4]; [16]): 13.3 days | Wt. Change (L1210 leukemia [4]; [16]): -3.1 g | ILS (L1210 leukemia [4]; [17]): 86% | MST (L1210 leukemia [4]; [17]): 15.3 days | Wt. Change (L1210 leukemia [4]; [17]): -2.2 g | ILS (L1210 leukemia [4]; [18]): 60% | MST (L1210 leukemia [4]; [18]): 14.0 days | Wt. Change (L1210 leukemia [4]; [18]): 0.2 g | ILS (L1210 leukemia [4]; [19]): 103% | MST (L1210 leukemia [4]; [19]): 16.3 days | Wt. Change (L1210 leukemia [4]; [19]): -3.9 g | ILS (L1210 leukemia [4]; [20]): 156% | MST (L1210 leukemia [4]; [20]): 21.0 days | Wt. Change (L1210 leukemia [4]; [20]): -2.8 g | ILS (L1210 leukemia [4]; [21]): 6% | MST (L1210 leukemia [4]; [21]): 9.3 days | Wt. Change (L1210 leukemia [4]; [21]): -2.5 g | ILS (L1210 leukemia [4]; [22]): 12% | MST (L1210 leukemia [4]; [22]): 9.0 days | Wt. Change (L1210 leukemia [4]; [22]): -5.8 g | ILS (L1210 leukemia [4]; [23]): -3% | MST (L1210 leukemia [4]; [23]): 8.0 days | Wt. Change (L1210 leukemia [4]; [23]): -4.5 g | Wt. Change (L1210 leukemia [4]; 138.9 mg/kg IP days 1-9, Expt. 1): -5.6 g | Wt. Change (L1210 leukemia [4]; 138.9 mg/kg IP days 1-9, Expt. 3): -5.5 g

CN1CCN(CN2C(=O)C3C4C=CC(C3C2=O)C2C3C(=O)N(CN5CCN(C)CC5)C(=O)C3C42)CC1 (stereo not shown) [Example 4, 4,8-Ethenopyrrolo[3',4':3,4]cyclobut[1,2-f]isoindole-1,3,5,7(2H,6H)-tetrone,3a,3b,4,4a,7a,8,8a,8b-octahydro-2,6-bis(N-methylpiperazinomethyl)di-hydrochloride]
H2O Sol. % (g per 100 ml H2O) (Water solubility): 10 % (g per 100 ml H2O) | ILS (L1210 leukemia [1]; [24]): 18% | MST (L1210 leukemia [1]; [24]): 9.7 days | Wt. Change (L1210 leukemia [1]; [24]): -0.2 g | ILS (L1210 leukemia [1]; [25]): 12% | MST (L1210 leukemia [1]; [25]): 12.0 days | Wt. Change (L1210 leukemia [1]; [25]): 0.3 g | ILS (L1210 leukemia [1]; [26]): 50% | MST (L1210 leukemia [1]; [26]): 12.3 days | Wt. Change (L1210 leukemia [1]; [26]): -1.6 g | ILS (L1210 leukemia [1]; [27]): 21% | MST (L1210 leukemia [1]; [27]): 13.0 days | Wt. Change (L1210 leukemia [1]; [27]): -1.5 g | ILS (L1210 leukemia [1]; [28]): 74% | MST (L1210 leukemia [1]; [28]): 14.3 days | Wt. Change (L1210 leukemia [1]; [28]): -4.2 g | ILS (L1210 leukemia [1]; [29]): 58% | MST (L1210 leukemia [1]; [29]): 17.0 days | Wt. Change (L1210 leukemia [1]; [29]): -2.9 g | ILS (L1210 leukemia [1]; [30]): 135% | MST (L1210 leukemia [1]; [30]): 19.3 days | Wt. Change (L1210 leukemia [1]; [30]): -4.7 g | Wt. Change (L1210 leukemia [1]; 114.7 mg/kg ip days 1-9, Expt. 2): -4.0 g | Wt. Change (L1210 leukemia [1]; 191.2 mg/kg ip days 1-9, Expt. 2): -6.6 g | ILS (L1210 leukemia [4]; [31]): 2% | MST (L1210 leukemia [4]; [31]): 8.9 days | Wt. Change (L1210 leukemia [4]; [31]): 2.5 g | ILS (L1210 leukemia [4]; [32]): 5% | MST (L1210 leukemia [4]; [32]): 8.4 days | Wt. Change (L1210 leukemia [4]; [32]): 0.8 g | ILS (L1210 leukemia [4]; [33]): 9% | MST (L1210 leukemia [4]; [33]): 9.0 days | Wt. Change (L1210 leukemia [4]; [33]): 0.3 g | ILS (L1210 leukemia [4]; [34]): 24% | MST (L1210 leukemia [4]; [34]): 10.8 days | Wt. Change (L1210 leukemia [4]; [34]): 1.4 g | ILS (L1210 leukemia [4]; [35]): 47% | MST (L1210 leukemia [4]; [35]): 11.8 days | Wt. Change (L1210 leukemia [4]; [35]): -2.6 g | ILS (L1210 leukemia [4]; [36]): 34% | MST (L1210 leukemia [4]; [36]): 11.0 days | Wt. Change (L1210 leukemia [4]; [36]): -1.5 g | ILS (L1210 leukemia [4]; [37]): 83% | MST (L1210 leukemia [4]; [37]): 16.0 days | Wt. Change (L1210 leukemia [4]; [37]): -1.7 g | ILS (L1210 leukemia [4]; [38]): 78% | MST (L1210 leukemia [4]; [38]): 14.3 days | Wt. Change (L1210 leukemia [4]; [38]): -4.1 g | ILS (L1210 leukemia [4]; [39]): 119% | MST (L1210 leukemia [4]; [39]): 18.0 days | Wt. Change (L1210 leukemia [4]; [39]): -3.2 g | ILS (L1210 leukemia [4]; [40]): 3% | MST (L1210 leukemia [4]; [40]): 9.0 days | Wt. Change (L1210 leukemia [4]; [40]): -2.6 g | ILS (L1210 leukemia [4]; [41]): 110% | MST (L1210 leukemia [4]; [41]): 16.8 days | Wt. Change (L1210 leukemia [4]; [41]): -5.3 g | ILS (L1210 leukemia [4]; [42]): 143% | MST (L1210 leukemia [4]; [42]): 20.0 days | Wt. Change (L1210 leukemia [4]; [42]): -4.6 g | Wt. Change (L1210 leukemia [4]; 191.2 mg/kg IP days 1-9, Expt. 3): -7.1 g | T/C (P388): 172
